The values that follow come from patent EP2730577A1, “CRYSTAL MODIFICATION OF A PARA-METHOXYANILIDE OF 6-HYDROXY-4-OXO-2,4,DIHYDRO-1H-PYRROLO[3,2,1-IJ]-QUINOLINE-5-CARBOXYLIC ACID” (Otkrytoe Aktsionernoe Obschestvo Mezhdunarodnaya, priority 2012, dated 2013).

Experiment [1] has as its system white rats. Briefly: Diuretic effect (urinary excretion) in rats after oral administration. The format is in vivo. The note with it: for Diuresis after 5 hr.: 10 mg/kg orally as a fine suspension in water stabilized with Tween-80, after water load, urine excreted over 5 hrs, control 4.3 ± 0.20 ml, 10 mg/kg; for Diuretic effect: 5 hr, relative to control = 100, 10 mg/kg. As for the experimental part: Example 6. Diuretic effect of the novel crystal modification (β-form) of 6-hydroxy-4-oxo-2,4-dihydro-1H-pyrrolo[3,2,1-ij]-quinoline-5-carboxylic acid para-metoxyanilide compared to the effect of the known crystal modification (α-form) of the same compound was studied on white rats weighing 180 - 200 g
(12 animals per each compound) using a standard technique. All tested animals received water via a gastric tube at 5 ml per […] of body weight. The control group received the same amount of water with Tween 80. The tested substances were administered orally at 10 mg/kg (median effective dose of the known α-form) as a fine suspension in water stabilized with Tween-80. After that, the tested animals were placed into "exchange cages". The urinary excretion intensity was determined by the amount of urine excreted by the animals over a period of 5 hrs. The experimental data shown in Table 9 leads to a conclusion that the diuretic action of the novel crystal modification (β-form) of 6-hydroxy-4-oxo-2,4-dihydro-1H-pyrrolo[3,2,1-ij]-quinoline-5-carboxylic acid para-metoxyanilide exceeds that of the known α-form by an average of 19%.

Experiment [2] concerns white rats. The note with it: diuretic effect, oral; stated for the known α-form without data of its own; cited from earlier work.

With `COc1ccc(NC(=O)c2c(O)c3cccc4c3n(c2=O)CC4)cc1` [Known α-form, 6-hydroxy-4-oxo-2,4-dihydro-1H-pyrrolo[3,2,1-ij]-quinoline-5-carboxylic acid para-metoxyanilide], the “Diuresis after 5 hr.” value in the experiment with white rats [1] came to 9.7 ± 0.28 mL. For the same compound, in the experiment on white rats [1] (10 mg/kg orally), the Diuretic effect amounted to 226%. The median effective dose with white rats [2] is 10 mg/kg.
Take `COc1ccc(NC(=O)c2c(O)c3cccc4c3n(c2=O)CC4)cc1` [Novel β-form, 6-hydroxy-4-oxo-2,4-dihydro-1H-pyrrolo[3,2,1-ij]-quinoline-5-carboxylic acid para-metoxyanilide]: the “Diuresis after 5 hr.” value with white rats [1] came to 10.5 ± 0.27 mL. Also, the Diuretic effect in the experiment with white rats [1] (10 mg/kg orally) came to 245%. The “diuretic action exceeds that of the known α-form” value in the experiment on white rats [1] (10 mg/kg orally, 5 hrs, β-form versus α-form, average) was 19%.
